Results from patent US20250388568A1, “NLRP3 INHIBITORS” (Kodiak Sciences Inc., priority 2022, published 2025).
Where two headings read alike, the source gives them in different places.

Legend:
[1] = system: IL-1β release in THP-1-ASC-GFP cells after NLRP3 activation; test: IC50 determination of IL-1β release inhibition in THP-1-ASC-GFP cells; type: cell-based; details: THP1-ASC-GFP, read-out: IL-1β IC50 (nM) THP1 cells
Experimental: Example 78: IC50 Determination of IL-1β Release Inhibition in THP-1-ASC-GFP Cells The compounds were tested for their ability to inhibit the IL-1β release in the THP-1-ASC-GFP cells after NLRP3 activation. THP1-ASC-GFP cells (Invivogen […] thawed following Invivogen's initial culture procedure. […] The growth medium was composed of RPM1640 medium (Gibco 32404-014), 10% heat inactivated (HI) serum (Gibco A3840102), Pen/Strep (Quality Biologics 118-089-721), 10 mM Hepes (Quality Biologics 118-089-721), 2 mM Glutamax (GIBCO 35050-061), 100 μg/mL normocin (Invivogen ant-nr), 100 μg/mL Zeocin (Invivogen ant-zn). The growth medium was freshly prepared once a week and sterile filtered. Assay medium consisted of RPMI 1640 medium, 10 mM Hepes, 2 mM Glutamax and Pen/Strep. To the assay medium, 1 μg/mL LPS (Invivogen tlrl-3pelps) was added. A cell suspension was prepared with assay medium and LPS at 1.25M cells per mL. With an electronic pipet, 80 μl of cell suspension was added to U bottom 96 well polystyrene plates (VWR 10062-902) leaving columns 1 and 2 empty. The plates were placed in the incubator for 4 hours. […] DMSO). An hour prior to the end of LPS incubation, a separate 96 deep well plate, Plate B, was prepared with 400 μL of assay media per well, then 2 μL of the stock DMSO solution from Plate A was added to each corresponding well. Plate B was covered to avoid media evaporation. In a 50 mL tube, a solution of nigericin in assay media at […] concentration was prepared. To a new 96 deep well plate, Plate C, 200 μL of this nigericin containing media was dispensed to each well and […] of the test compounds from Plate A to each corresponding well was added. Plate C was covered to avoid media evaporation. After 4 hours of priming, all the media from the LPS treated THP-1 cells in the initial U bottom plate was removed manually. To this plate of primed cells, 80 μL/well test compounds from Plate B was added in duplicate columns (5 compounds tested per plate). The plate was placed in an incubator for 30 min. […] The plate was placed back in the incubator for 1 hour. At the end of 1 hour, the supernatant from this test plate was transferred to a new 96 well V bottom polypropylene plate which was frozen immediately at -80° C. The plate was transferred to -20° C. the next day and awaiting further determination of cytokine IL-1β level. The release of IL-1β into the cell media was determined by MSD® Multi-Spot Assay System (V-Plex, IL-1B kit, […]-4). Following the manufacture's protocol and using the Alternate Protocol 3, Dilute-In-Plate protocol specifically, the level of IL-1β in the above collected supernatant plate was measured as electrochemiluminescent signals. Using MSD DISCOVERY WORKBENCH® analysis software, the signals were converted to the concentration of IL-1β in each well. The IC50 values of the compounds were calculated using the Graph Pad Prism software based on the […] concentration determined. The detection range of IL-1β using MSD kit was approximately […] (based on various lots of standards purchased from MSD).

[2] = system: IL-1β release in U937 cells after NLRP3 activation; test: IC50 determination of IL-1β release inhibition in U937 cells; type: cell-based; details: Homo sapiens, read-out: IL-1β IC50 (nM) U937 cells
Procedure, shortened: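 PMA-differentiated U937 cells (90 h) were primed 5 h with 1 μg/mL LPS, pre-incubated 30 min with compound, then stimulated with nigericin for 1 h. Supernatant IL-1β was quantified by MSD electrochemiluminescence. IC50 was derived from IL-1β concentration, with duplicate wells per compound.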

[3] = THP-1-ASC-GFP cells, LPS priming 4 h, nigericin, average of at least three experiments
[4] = U-937, PMA-differentiated U937 cells, LPS priming 5 h, nigericin, average of at least three experiments

SMILES	IC50 [1, 3] [nM]	IC50 [2, 4] [nM]	IC50 ([1]; 4 h) [nM]	IC50 ([2]; U-937, 5 h) [nM]
N=S(=O)(NC(=O)Nc1c2c(cc3c1CCC3)CCC2)c1cc(CN2CC(O)C2)co1 (stereo not shown) [Example 1, N-((1,2,3,5,6,7-hexahydro-s-indacen-4-yl)carbamoyl)-4-((3-hydroxyazetidin-1-yl)methyl)furan-2-sulfonimidamide]	< 5	5 to 50		
CC(C)NCc1coc(S(=N)(=O)NC(=O)Nc2c3c(cc4c2CCC4)CCC3)c1 (stereo not shown) [Example 23, N-((1,2,3,5,6,7-hexahydro-s-indacen-4-yl)carbamoyl)-4-((isopropylamino)methyl)furan-2-sulfonimidamide]			< 5	< 5
Cc1oc(S(=O)(=O)NC(=O)Nc2c3c(c(F)c4c2CCC4)CCC3)cc1CN1C[C@@H](O)[C@@H](F)C1 [Example 42, N-((8-fluoro-1,2,3,5,6,7-hexahydro-s-indacen-4-yl)carbamoyl)-4-(((3S,4R)-3-fluoro-4-hydroxypyrrolidin-1-yl)methyl)-5-methylfuran-2-sulfonamide]	5 to 50	50 to 500		
O=C(Nc1c2c(cc3c1CCC3)CCC2)NS(=O)(=O)c1cc2c(o1)CCNC2 [Example 73, N-((1,2,3,5,6,7-hexahydro-s-indacen-4-yl)carbamoyl)-4,5,6,7-tetrahydrofuro[3,2-c]pyridine-2-sulfonamide]	5 to 50	5 to 50		
Cc1cc(S(=O)(=O)NC(=O)Nc2c3c(c(F)c4c2CCC4)CCC3)oc1CN(C)CC1(O)CCC1 [Example 50, N-((8-fluoro-1,2,3,5,6,7-hexahydro-s-indacen-4-yl)carbamoyl)-5-((((1-hydroxycyclobutyl)methyl)(methyl)amino)methyl)-4-methylfuran-2-sulfonamide]	5 to 50	5 to 50		
Cn1nc(S(=O)(=O)NC(=O)Nc2c3c(c(F)c4c2CCC4)CCC3)cc1CN1CC[C@@H](O)C1 [Example 61, (R)-N-((8-fluoro-1,2,3,5,6,7-hexahydro-s-indacen-4-yl)carbamoyl)-5-((3-hydroxypyrrolidin-1-yl)methyl)-1-methyl-1H-pyrazole-3-sulfonamide]	50 to 500	50 to 500		
Cc1oc(S(=O)(=O)NC(=O)Nc2c3c(c(F)c4c2CCC4)CCC3)cc1CN1C[C@H](O)[C@@H](F)C1 [Example 41, N-((8-fluoro-1,2,3,5,6,7-hexahydro-s-indacen-4-yl)carbamoyl)-4-(((3S,4S)-3-fluoro-4-hydroxypyrrolidin-1-yl)methyl)-5-methylfuran-2-sulfonamide]	5 to 50	5 to 50		

Continued, in another order:

IC50 [1, 3] [nM]	IC50 [2, 4] [nM]	SMILES	IC50 ([1]; 4 h) [nM]	IC50 ([2]; U-937, 5 h) [nM]
< 5	5 to 50	CC(C)(O)c1cc(S(=O)(=O)NC(=O)Nc2c3c(c(F)c4c2CCC4)CCC3)oc1COC1CNC1 [Example 71, 5-((azetidin-3-yloxy)methyl)-N-((8-fluoro-1,2,3,5,6,7-hexahydro-s-indacen-4-yl)carbamoyl)-4-(2-hydroxypropan-2-yl)furan-2-sulfonamide]		
50 to 500	50 to 500	Cc1oc([S@@](=N)(=O)NC(=O)Nc2c3c(cc4c2CCC4)CCC3)cc1CNC(C)C (single isomer, unassigned) [Example 26, formic acid]		
5 to 50	5 to 50	Cc1cc(S(=O)(=O)NC(=O)Nc2c3c(c(Cl)c4c2CCC4)CCC3)oc1CN(C)CC1(O)CCC1 [Example 57, N-((8-chloro-1,2,3,5,6,7-hexahydro-s-indacen-4-yl)carbamoyl)-5-((((1-hydroxycyclobutyl)methyl)(methyl)amino)methyl)-4-methylfuran-2-sulfonamide]		
< 5	5 to 50	Cc1oc(S(=O)(=O)NC(=O)Nc2c3c(c(F)c4c2CCC4)CCC3)cc1CN1CCC[C@@H]1CO [Example 45, (R)-N-((8-fluoro-1,2,3,5,6,7-hexahydro-s-indacen-4-yl)carbamoyl)-4-((2-(hydroxymethyl)pyrrolidin-1-yl)methyl)-5-methylfuran-2-sulfonamide]		
